Source: patent US5182113A, “Factor Xa inibitor from leech and pharmaceutical compositions containing same” (Bio-Technology General Corp., priority 1988, dated 1993)
Entries after “also recorded” stand apart in the source; their conditions may differ.

Legend:
bovine Factor Xa [1] = assay: Inhibition of bovine Xa activity on chromogenic substrate; format: biochemical; conditions: result in words
Experimental: (§1) Regarding the methods, synthetic substrates having a chromogenic end group such as pNA (para- nitroanilide) are preferably used, enabling easy monitoring of the progress of the coagulation by spectrophotometer methods. […] The reactions were monitored at 405 nm in a spectrophotometer connected to a computer and the kinetic parameter were calculated from the appropriate extinction coefficients by a Jackson-Labanowski linear regression program. The measurements were carried out in disposable polystyrene cuvettes at pH of 7.8 and a temperature of 25° C.

bovine thrombin = assay: Inhibition of bovine thrombin activity on chromogenic substrate; format: biochemical; conditions: result in words
Experimental: as §1

bovine F.Xa = assay: Affinity binding to bovine F.Xa immobilized on Affi-Gel 10; conditions: leech saliva passed through column, pH 7.9
Experimental: The inhibitor/modulator of the present invention may be isolated from the saliva by adsorption on an Affi-Gel column on which bovine F.Xa is fixed and subsequent elution with acetic acid. Hirudin was not adsorbed on said gel. Affi-Gel 10 is used, which is a derivatized ross-linked agarose containing a 10-atom spacer arm esterified to N-hydroxysuccinimide. The capacity of this gel is 10 micromoles/ml.
1. Coupling. To 1ml washed Affi-Gel 10 in a mini-column were added 2ml of a dialyzed BXa solution (40 nmoles) in 0.05 M Hepes/0.1 M NaCl buffer pH 7.5. The column was shaken for 2 h at room temp. The supernatant was then run off the column, which was not allowed to dry. Ninety four percent of the BXa load was bound to the gel.
3. Affinity binding of XaM. Leech saliva (40 ml, 305 pmoles XaM) was adjusted to pH 7.9 by adding 1% v/v 1M Tris pH 8 and was passed through the column. Ninety two percent of the XaM was bound to the gel. Hirudin was not bound.

F.Xa = conditions: substrate affinity; cited from earlier work
bovine Factor Xa [2] = conditions: literature (Tuszynski, Gasic and Gasic 1987); cited from earlier work

hirudin
inhibition of bovine F.Xa (bovine Factor Xa [1]): does not inhibit bovine F.Xa | inhibition of thrombin (bovine thrombin): inhibits thrombin | adsorption on Affi-Gel with fixed bovine F.Xa (bovine F.Xa): not adsorbed; also recorded: not bound

N=C(N)NCCC[C@H](NC(=O)[C@@H]1CCCCN1C(=O)[C@H](N)Cc1ccccc1)C(=O)Nc1ccc([N+](=O)[O-])cc1 [S2238, D-Phe-Pipecolyl-L-Arg-pNa]
Km (F.Xa): 46.9 µM

B1: antistasin (protein, UniProt P15358 18-136, looked up)
Antistasin: QGPFGPGCEEAGCPEGSACNIITDRCTCSGVRCRMHCPHGFQRSRYGCEFCKCRLEPMKATCDISECPEGMMCSRLTNKCDCKIDINCRKTCPNGLKRDKLGCEYCECRPKRKLIPRLS
remaining BXa activity at which the dose-response curve flattens out (bovine Factor Xa [2]): about 50%
